Reference: patent US20200353052A1, “COMPOSITION FOR PROMOTING GOBLET CELL PROLIFERATION OR MUCIN SECRETION COMPRISING THYMOSIN BETA 4 OR DERIVATIVE THEREOF AS ACTIVE INGREDIENT” (G-TREEBNT CO., LTD., priority 2017, published 2020)

Tests used:
Format in all cases: in vivo, NOD.B10-H2b mice
Muc16 = assay: Immunofluorescence staining of Muc16 in cornea and conjunctiva of dry eye-induced mice; details: corneal and conjunctival epithelium; eye drop instillation for 10 days; immunofluorescence (FIGS. 6 and 7)
Procedure: (§1) 12-week-old or older NOD.B10-H2b mice were kept in a chamber with a humidity of 40% or lower for 10 days. Scopolamine hydrobromide (Sigma-Aldrich, SLBR8568V) at a concentration of 0.5 mg/0.2 ml was injected subcutaneously into the thigh 4 times (9 am, 12 pm, 3 pm, and 6 pm) daily while the mice were kept in the chamber. After 10 days, tear secretion volume and corneal smoothness score were measured, and only those mice with a tear secretion volume of 0.06 μl or lower and a corneal smoothness score of 2 or lower were selected.
(§2) For each test drug, eye drop instillation was performed as follows: Vehicle, 4 times a day; Diquas (Santen Pharmaceutical Co., Ltd., Japan), 6 times a day; Xiidra (Shire plc, USA), twice a day; and GBT-201, twice or 4 times a day. After 10 days, each group of mice was sacrificed, the eyeballs were collected, and tissue immunostaining and molecular biological analysis were performed (FIG. 1). […]
(§3) Specifically, the eyeballs of the mice sacrificed in Experimental Example 1 were collected, and the eyes and adnexa, which had been fixed in formalin for 3 days, were cut into 6 μm sections using a microtome. […] The mounted slide was photographed using a fluorescence microscope (Leica DM2500, Leica Microsystems GmbH, Wetzlar, Germany).

[1] = system: mucin secreted in the conjunctiva; assay: Amount of mucin secreted by Alcian blue staining of eyeball sections from dry eye-induced mice after eye drop instillation; details: eye drop instillation for 10 days; Alcian blue staining photographs (FIG. 4)
Procedure: as §1
(§4) For each test drug, eye drop instillation was performed as follows: Vehicle, 4 times a day; Diquas (Santen Pharmaceutical Co., Ltd., Japan), 6 times a day; Xiidra (Shire plc, USA), twice a day; and GBT-201, twice or 4 times a day. After 10 days, each group of mice was sacrificed, the eyeballs were collected, and tissue immunostaining and molecular biological analysis were performed (FIG. 1).
In order to identify whether thymosin beta 4 results in an increase in amount of mucin secreted in the conjunctiva, the eyeballs of the mice sacrificed in Experimental Example 1 were collected and assessed through Alcian blue staining.
Specifically, the eyeballs of the mice sacrificed in Experimental Example 1 were collected, and the eyes and adnexa, which had been fixed in formalin for 3 days, were cut into 6 μm sections using a microtome. […]

[2] = system: goblet cells in the conjunctiva; assay: Goblet cell number by PAS staining of eyeball sections from dry eye-induced mice after eye drop instillation; details: eye drop instillation for 10 days; PAS staining photographs (FIG. 2)
Procedure: as §1, §4
In order to identify whether thymosin beta 4 promotes proliferation of goblet cells, which are cells that secrete mucin in the conjunctiva, the eyeballs of the mice sacrificed in Experimental Example 1 were collected and assessed through periodicacid-Schiff (PAS) staining. […]

Muc1 = assay: Immunofluorescence staining of Muc1 in cornea and conjunctiva of dry eye-induced mice; details: corneal and conjunctival epithelium; eye drop instillation for 10 days; immunofluorescence (FIGS. 6 and 7)
Procedure: as §1, §2, §3

Muc4 = assay: Immunofluorescence staining of Muc4 in cornea and conjunctiva of dry eye-induced mice; details: corneal and conjunctival epithelium; eye drop instillation for 10 days; immunofluorescence (FIGS. 6 and 7)
Procedure: as §1, §2, §3

Muc5AC = assay: Immunofluorescence staining of Muc5AC in cornea and conjunctiva of dry eye-induced mice; details: eye drop instillation for 10 days, immunofluorescence (FIGS. 6 and 7)
Procedure: as §1, §2, §3

thymosin beta 4 (SDKPDMAEIEKFDKSKLKKTETQEKNPLPSKETIEQEKQAGES; thymosin beta 4; listed as Homo sapiens)
increased: expression level of Muc16 as compared with the DS D10 control group, visually identified (Muc16) | amount of mucin secreted as compared with the DS D10 control group, visually identified [1] | number of goblet cells as compared with the DS D10 control group, visually identified [2] | expression level of Muc1 as compared with the DS D10 control group, visually identified (Muc1) | expression level of Muc4 as compared with the DS D10 control group, visually identified (Muc4) | expression level of Muc5AC as compared with the DS D10 control group, visually identified (Muc5AC)
